The record followed here is patent US20230339834A1, “CHLORINATED FLUOROAROMATICS AND METHODS OF USING SAME” (3M INNOVATIVE PROPERTIES COMPANY, priority 2019, published 2023).

Series [1] in a line: Dielectric constant (ASTM D150-11, broadband dielectric spectrometer). It counts as physicochemical. Here is the method:
Dielectric constants were measured using an Alpha-A High Temperature Broadband Dielectric Spectrometer (Novocontrol Technologies, Montabaur, Germany) in accordance with ASTM D150-11, “Standard Test Methods for AC Loss Characteristics and Permittivity (Dielectric Constant) of Solid Electrical Insulation.” The parallel plate electrode configuration was selected for this measurement. The sample cell of parallel plates, an Agilent 16452A liquid test fixture consisting of 38 mm diameter parallel plates (Keysight Technologies, Santa Rosa, CA, US) was interfaced to the Alpha-A mainframe while utilizing the ZG2 Dielectric/Impedance General Purpose Interface available from Novocontrol Technologies. Each sample was prepared between parallel plate electrodes with a spacing, d, (typically, d=1 mm) and the complex permittivity (dielectric constant and loss) were evaluated from the phase sensitive measurement of the electrodes voltage difference (Vs) and current (Is). Frequency domain measurements were carried out at discrete frequencies from 0.00001 Hz to 1 MHz. Impedances from 10 milliohms up to 1×10^14 ohms were measured up to a maximum of 4.2 volts AC. For this experiment, however, a fixed AC voltage of 1.0 volts was used. The DC conductivity (the inverse of volume resistivity) can also be extracted from an optimized broadband dielectric relaxation fit function that contains at least one term of the low frequency Havrrilak Negami dielectric relaxation function and one separate frequency dependent conductivity term.

Series [2] in a line: Density (DDM 2911 plus Automatic Density Meter). The series is classed as physicochemical. Here is the method: Density was measured using DDM 2911 plus Automatic Density Meter. Before measurement, the fluid was briefly degassed in the syringe by stoppering the syringe tip and pulling on the plunger to release bubbles.
Series [3] is described as follows: Liquid dielectric breakdown strength (ASTM D877-87). It counts as physicochemical. To be noted: 2.5 mm gap, 60 Hz. On the procedure:
The liquid dielectric breakdown strength measurements were performed in accordance with ASTM […]-87(1995), “Standard Test Method for Dielectric Breakdown Voltage of Insulating Liquids.” Disk electrodes 25mm in diameter, with 2.5 mm (0.10'') spacing between the electrodes, were utilized with a Phenix Technologies Model LD 60 that is specifically designed for testing in the 7-60 kV, 60 Hz (higher voltage) breakdown range. For this experiment, a frequency of 60 Hz and a ramp rate of 500 volts per second were utilized, as is typical.

Series [4] is classed as physicochemical. Here is the method: The boiling points reported in Table 1 were determined using the procedures outlined in ASTM E 1719-97 “Standard Test Method for Vapor Pressure of Liquids by Ebulliometry.” First, vapor pressure was measured, and then the boiling point was calculated as described in section 10 of ASTM method […]-97.
Series [5] is described as follows: Kinematic viscosity (ASTM D445-94e1). It counts as physicochemical. Here is the method: Kinematic viscosity was determined in accordance with ASTM D445-94e1 “Standard Test Method for Kinematic Viscosity of Transparent and Opaque Liquids (the Calculation of Dynamic Viscosity)”, except the bath temperature was controlled to ±0.1° C., using a ViscoSystem AVS 350 viscosity timer (Schott Instruments GmbH, Hattenbergstraße 10 55122 Mainz Germany) and Hagenbach-corrected 545-03, 545-13 or 545-20 Ubbelohde viscometers (Cannon Instruments Company, Box 812, State College, PA). For temperatures below 0° C., a Lawler temperature control bath was used.

The nature of series [6]: Log KOW octanol/water partition coefficient by HPLC (OECD 117). The series is classed as physicochemical. As to conditions: HPLC method. On the procedure:
Values of Log KOW (octanol/water partition coefficients) were determined by HPLC using the method described in Organization for Economic Cooperation and Development (OECD) Test Method 117, “Partition Coefficient (n-octanol/water), HPLC Method.”

The nature of series [7]: Flash point, small scale closed cup (ASTM D-3278-96 e-1). It counts as physicochemical. To be noted: no flash point = non-flammable.
The format of series [8] is physicochemical. To be noted: 200±2° C., 31.5 days, sealed borosilicate tube. Here is the method: To evaluate thermal stability, a flame-sealed borosilicate glass tube (50 mm outer diameter, 0.4 mm wall thickness) containing Example 1 [1.0 g, isomeric mixture of 4-Cl(C6H4)O(C9F17)] was completely submerged in a temperature-controlled oil bath at 200±2° C. for 31.5 days.

For `F/C(=C(/C(F)(F)F)C(F)(Oc1ccc(F)cc1)C(F)(F)C(F)(F)F)C(F)(C(F)(F)F)C(F)(F)F` (centres unmarked) [CE3, (E)-1-fluoro-4-((1,1,1,2,2,3,5,6,7,7,7-undecafluoro-4,6-bis(trifluoromethyl)hept-4-en-3-yl)oxy)benzene], the “Dielectric Constant @ 1 kHz” value in series [1] was found to be 2.63. Besides, in series [2], the “Density at 25° C.” value amounted to 1.68 g/mL. This compound also displayed a Dielectric strength in series [3] of 38.1 kV. In series [4], the “Boiling Point” value was 206 °C and the “Boiling point above non-chlorinated analog” value was 5 °C. Besides, the “Viscosity at 0° C.” value in series [5] is reported as 11.8 cSt. The “Log Kow” value in series [6] is above 6.4. Besides, in series [7], the “Flash Point” value was “None”.

`F/C(=C(/C(F)(F)F)C(F)(Oc1ccc(Cl)cc1)C(F)(F)C(F)(F)F)C(F)(C(F)(F)F)C(F)(F)F` (centres unmarked) [Ex. 1, (E)-1-chloro-4-((1,1,1,2,2,3,5,6,7,7,7-undecafluoro-4,6-bis(trifluoromethyl)hept-4-en-3-yl)oxy)benzene]: the “Dielectric Constant @ 1 kHz” value in series [1] is recorded as 2.57. In addition, in series [2], the “Density at 25° C.” value was found to be 1.65 g/mL. This compound also had a Dielectric strength in series [3] of 46.6 kV. Also, in series [4], the “Boiling Point” value was 223 °C and the “Boiling point above non-chlorinated analog” value is “at least 22 °C”. The “Viscosity at 0° C.” value in series [5] stood at 24.1 cSt. In addition, in series [6], the “Log Kow” value is reported as above 6.4. In series [8], the “4-Cl(C6H4)O(C9F17) isomers by GC-FID, before and after heating” value was 99.9±0.1%. In addition, the “Flash Point” value in series [7] was “None”.

On to `FC(F)(F)C(=C(Oc1ccccc1)C(F)(F)C(F)(F)F)C(F)(F)F` [CE2], for which, in series [1], the “Dielectric Constant @ 1 kHz” value is 5.16. Besides, the “Density at 25° C.” value in series [2] was 1.51 g/mL. This compound also came in with a Dielectric strength in series [3] of 31.1 kV. In series [4], the “Boiling Point” value is 169 °C. The “Viscosity at 0° C.” value in series [5] is 3.6 cSt. Besides, the “Log Kow” value in series [6] was found to be 5.5. Further, the “Flash Point” value in series [7] is “None”.

With `F/C(=C(/C(F)(F)F)C(F)(Oc1cc(Cl)cc(Cl)c1)C(F)(F)C(F)(F)F)C(F)(C(F)(F)F)C(F)(F)F` (centres unmarked) [Ex. 3, (E)-1,3-dichloro-5-((1,1,1,2,2,3,5,6,7,7,7-undecafluoro-4,6-bis(trifluoromethyl)hept-4-en-3-yl)oxy)benzene], the “Dielectric Constant @ 1 kHz” value in series [1] is 2.54. Besides, the “Density at 25° C.” value in series [2] was 1.70 g/mL. In series [4], the “Boiling Point” value turned out to be 237 °C and the “Boiling point above non-chlorinated analog” value amounted to 35 °C. The “Viscosity at 0° C.” value in series [5] was 40.8 cSt. For the same compound, the “Flash Point” value in series [7] is listed as “None”.

As to `F/C(=C(/C(F)(F)F)C(F)(Oc1ccccc1)C(F)(F)C(F)(F)F)C(F)(C(F)(F)F)C(F)(F)F` (centres unmarked) [CE1, (E)-((1,1,1,2,2,3,5,6,7,7,7-Undecafluoro-4,6-bis(trifluoromethyl)hept-4-en-3-yl)oxy)benzene], in series [1], the “Dielectric Constant @ 1 kHz” value is 4.42. The “Density at 25° C.” value in series [2] was 1.62 g/mL. In series [3], the Dielectric strength was 38.1 kV. The “Boiling Point” value in series [4] amounted to 201 °C. The “Viscosity at 0° C.” value in series [5] is given as 8.7 cSt. In series [6], the “Log Kow” value is on record as above 6.4. The “Flash Point” value in series [7] is reported as “None”.

Turning to `FC(F)(F)C(=C(Oc1ccc(Cl)cc1)C(F)(F)C(F)(F)F)C(F)(F)F` [Ex. 2, 1-chloro-4-((1,1,1,4,4,5,5,5-octafluoro-2-(trifluoromethyl)pent-2-en-3-yl)oxy)benzene], the “Dielectric Constant @ 1 kHz” value in series [1] is 2.76. The “Density at 25° C.” value in series [2] was determined as 1.58 g/mL. The Dielectric strength in series [3] turned out to be 50.7 kV. Also, in series [4], the “Boiling Point” value turned out to be 193 °C and the “Boiling point above non-chlorinated analog” value was “at least 22 °C”. In series [5], the “Viscosity at 0° C.” value was 8.4 cSt. Moreover, in series [7], the “Flash Point” value is listed as “None”.
